# Molecular target: Human recombinant PDE4 (Genbank accession no NM—006203) (Homo sapiens, UniProt Q08499)
# Assay: PDE4 assay (SPA, cleavage of cAMP)
# Type: biochemical
# Conditions: 1 hour incubation, test compound up to 10 μM, cAMP 1×10^−5M, read-out: PDE4 IC50 range
# Method: Human recombinant PDE4 (Genbank accession no NM_006203) was incubated for 1 hour with the test compound at concentrations up to 10 μM, with cAMP (1×10^−5M), and with a low amount (0.021 MBq) of radioactively labelled cAMP. At the end of the incubation, the cleavage of the substrate was evaluated by the binding of the AMP product to SPA beads, which generate chemoluminescence when bound to the radioactive tracer. The AMP product inhibited the binding of the radioactive tracer to the beads, and the luminescent signal was competed.
# The results were calculated as the molar concentrations resulting in 50% inhibition of the substrate cleavage compared to controls samples, and are expressed as a range of IC50 (M).
# The compounds of the present invention were tested in the PDE4 assay.
# Sequence of Human recombinant PDE4 (Genbank accession no NM—006203) (Q08499 1-673 isoform Q08499-2): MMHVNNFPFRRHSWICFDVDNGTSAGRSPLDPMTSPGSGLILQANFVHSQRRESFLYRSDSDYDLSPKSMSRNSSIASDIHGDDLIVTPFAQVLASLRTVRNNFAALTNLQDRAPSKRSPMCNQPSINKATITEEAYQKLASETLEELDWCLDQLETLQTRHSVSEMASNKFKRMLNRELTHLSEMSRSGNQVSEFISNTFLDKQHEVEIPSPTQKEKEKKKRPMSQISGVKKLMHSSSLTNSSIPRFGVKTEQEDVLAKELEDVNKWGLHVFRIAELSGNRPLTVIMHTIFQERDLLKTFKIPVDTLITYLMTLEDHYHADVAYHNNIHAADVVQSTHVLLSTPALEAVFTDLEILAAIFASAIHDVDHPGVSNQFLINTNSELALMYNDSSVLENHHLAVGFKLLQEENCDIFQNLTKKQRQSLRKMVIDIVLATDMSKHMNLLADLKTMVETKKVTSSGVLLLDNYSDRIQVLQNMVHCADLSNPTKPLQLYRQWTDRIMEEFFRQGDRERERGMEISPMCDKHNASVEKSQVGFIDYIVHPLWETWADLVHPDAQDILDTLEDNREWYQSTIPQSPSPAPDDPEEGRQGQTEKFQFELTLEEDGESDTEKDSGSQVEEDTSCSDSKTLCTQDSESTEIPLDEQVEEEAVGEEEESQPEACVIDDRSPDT
row,SMILES,IC50
1,"COc1ccc(-c2cccc3c2CCC3=O)c(OCCC(C)C)c1OC [Compound 101, 4-[3,4-Dimethoxy-2-(3-methyl-butoxy)-phenyl]-indan-1-one]",< 100 nM
2,"COc1ccc(-c2cccc3c2CCC3=O)c(OCC2CCC2)c1OC [Compound 102, 4-(2-Cyclobutylmethoxy-3,4-dimethoxy-phenyl)-indan-1-one]",< 100 nM
3,"COc1ccc(-c2cccc3c2CCC3=O)c(OCc2ccc(S(C)(=O)=O)cc2)c1OC [Compound 103, 4-[2-(4-Methanesulfonyl-benzyloxy)-3,4-dimethoxy-phenyl]-indan-1-one]",< 100 nM
4,"COc1ccc(-c2cccc3c2CCC3=O)c(OCC2(CO)COC2)c1OC [Compound 104, 4-[2-(3-Hydroxymethyl-oxetan-3-ylmethoxy)-3,4-dimethoxy-phenyl]-indan-1-one]",< 100 nM
5,"COc1ccc(-c2cccc3c2CCC3=O)c(OCCC(C)(C)C)c1OC [Compound 105, 4-[2-(3,3-Dimethyl-butoxy)-3,4-dimethoxy-phenyl]-indan-1-one]",< 100 nM
6,"COc1ccc(-c2cccc3c2CCC3=O)c(OCc2ccc(C(N)=O)cc2)c1OC [Compound 106, 4-[2,3-Dimethoxy-6-(1-oxo-indan-4-yl)-phenoxymethyl]-benzamide]",< 100 nM
7,"COc1ccc(-c2cccc3c2CCC3=O)c(OCC(C)(C)CO)c1OC [Compound 107, 4-[2-(3-Hydroxy-2,2-dimethyl-propoxy)-3,4-dimethoxy-phenyl]-indan-1-one]",< 100 nM
8,"CNC(=O)c1ccc(COc2c(-c3cccc4c3CCC4=O)ccc(OC)c2OC)cc1 [Compound 108, 4-[2,3-Dimethoxy-6-(1-oxo-indan-4-yl)-phenoxymethyl]-N-methyl-benzamide]",< 100 nM
9,"COc1ccc(-c2cccc3c2CCC3=O)c(OCc2ccc(C(=O)N(C)C)cc2)c1OC [Compound 109, 4-[2,3-Dimethoxy-6-(1-oxo-indan-4-yl)-phenoxymethyl]-N,N-dimethyl-benzamide]",< 100 nM
10,"COc1ccc(-c2cccc3c2CCC3=O)c(OCc2cccc(C(=O)N(C)C)c2)c1OC [Compound 110, 3-[2,3-Dimethoxy-6-(1-oxo-indan-4-yl)-phenoxymethyl]-N,N-dimethyl-benzamide]",< 100 nM
11,"COc1ccc(-c2cccc3c2CCC3=O)c(OCc2cccc(S(=O)(=O)N(C)C)c2)c1OC [Compound 111, 3-[2,3-Dimethoxy-6-(1-oxo-indan-4-yl)-phenoxymethyl]-N,N-dimethyl-benzenesulfonamide]",< 100 nM
12,"COc1ccc(-c2cccc3c2CCC3=O)c(OCc2ccc(S(N)(=O)=O)cc2)c1OC [Compound 112, 4-[2,3-Dimethoxy-6-(1-oxo-indan-4-yl)-phenoxymethyl]-benzenesulfonamide]",< 100 nM
13,"COc1ccc(-c2cccc3c2CCC3=O)c(OCc2cccc(S(C)(=O)=O)c2)c1OC [Compound 113, 4-[2-(3-Methanesulfonyl-benzyloxy)-3,4-dimethoxy-phenyl]-indan-1-one]",< 100 nM
14,"COc1ccc(-c2cccc3c2CCC3=O)c(OCc2cccc(C(N)=O)c2)c1OC [Compound 114, 3-[2,3-Dimethoxy-6-(1-oxo-indan-4-yl)-phenoxymethyl]-benzamide]",< 100 nM
15,"COc1ccc(-c2cccc3c2COC3=O)c(OCc2ccc(S(C)(=O)=O)cc2)c1OC [Compound 115, 4-[2-(4-Methanesulfonyl-benzyloxy)-3,4-dimethoxy-phenyl]-3H-isobenzofuran-1-one]",< 100 nM
16,"COc1ccc(-c2cccc3c2COC3=O)c(OCc2ccc(C(N)=O)cc2)c1OC [Compound 116, 4-[2,3-Dimethoxy-6-(1-oxo-1,3-dihydro-isobenzofuran-4-yl)-phenoxymethyl]-benzamide]",< 100 nM
17,"CNC(=O)c1ccc(COc2c(-c3cccc4c3COC4=O)ccc(OC)c2OC)cc1 [Compound 117, 4-[2,3-Dimethoxy-6-(1-oxo-1,3-dihydro-isobenzofuran-4-yl)-phenoxymethyl]-N-methyl-benzamide]",< 100 nM
18,"COc1ccc(-c2cccc3c2COC3=O)c(OCc2ccc(C(=O)N(C)C)cc2)c1OC [Compound 118, 4-[2,3-Dimethoxy-6-(1-oxo-1,3-dihydro-isobenzofuran-4-yl)-phenoxymethyl]-N,N-dimethyl-benzamide]",< 100 nM
19,"COc1ccc(-c2cccc3c2COC3=O)c(OCC2(CO)COC2)c1OC [Compound 119, 4-[2-(3-Hydroxymethyl-oxetan-3-ylmethoxy)-3,4-dimethoxy-phenyl]-3H-isobenzofuran-1-one]",100 to 500 nM
20,"COc1ccc(-c2ccc3c(c2)CCC3=O)c(OCCC(C)C)c1OC [Compound 120, 5-[3,4-Dimethoxy-2-(3-methyl-butoxy)-phenyl]-indan-1-one]",< 100 nM
21,"COc1ccc(-c2ccc3c(c2)CCC3=O)c(OCC(C)(C)C)c1OC [Compound 121, 5-[2-(2,2-Dimethyl-propoxy)-3,4-dimethoxy-phenyl]-indan-1-one]",< 100 nM

row,SMILES,IC50
1,"COc1ccc(-c2ccc3c(c2)CCC3=O)c(OCC2CCC2)c1OC [Compound 122, 5-(2-Cyclobutylmethoxy-3,4-dimethoxy-phenyl)-indan-1-one]",< 100 nM
2,"COc1ccc(-c2ccc3c(c2)CCC3=O)c(OCCC(C)(C)C)c1OC [Compound 123, 5-[2-(3,3-Dimethyl-butoxy)-3,4-dimethoxy-phenyl]-indan-1-one]",< 100 nM
3,"COc1ccc(-c2ccc3c(c2)CCC3=O)c(OCc2ccc(C(N)=O)cc2)c1OC [Compound 124, 4-[2,3-Dimethoxy-6-(1-oxo-indan-5-yl)-phenoxymethyl]-benzamide]",< 100 nM
4,"COc1ccc(-c2ccc3c(c2)CCC3=O)c(OCC(C)(C)CO)c1OC [Compound 125, 5-[2-(3-Hydroxy-2,2-dimethyl-propoxy)-3,4-dimethoxy-phenyl]-indan-1-one]",< 100 nM
5,"CNC(=O)c1ccc(COc2c(-c3ccc4c(c3)CCC4=O)ccc(OC)c2OC)cc1 [Compound 126, 4-[2,3-Dimethoxy-6-(1-oxo-indan-5-yl)-phenoxymethyl]-N-methyl-benzamide]",< 100 nM
6,"COc1ccc(-c2ccc3c(c2)CCC3=O)c(OCc2ccc(C(=O)N(C)C)cc2)c1OC [Compound 127, 4-[2,3-Dimethoxy-6-(1-oxo-indan-5-yl)-phenoxymethyl]-N,N-dimethyl-benzamide]",< 100 nM
7,"COc1ccc(-c2ccc3c(c2)CCC3=O)c(OCc2cccc(C(=O)N(C)C)c2)c1OC [Compound 128, 3-[2,3-Dimethoxy-6-(1-oxo-indan-5-yl)-phenoxymethyl]-N,N-dimethyl-benzamide]",< 100 nM
8,"COc1ccc(-c2ccc3c(c2)CCC3=O)c(OCC2(CO)COC2)c1OC [Compound 129, 5-[2-(3-Hydroxymethyl-oxetan-3-ylmethoxy)-3,4-dimethoxy-phenyl]-indan-1-one]",100 to 500 nM
9,"COc1ccc(-c2ccc3c(c2)CCC3=O)c(OCc2ccc(S(C)(=O)=O)cc2)c1OC [Compound 130, 5-[2-(4-Methanesulfonyl-benzyloxy)-3,4-dimethoxy-phenyl]-indan-1-one]",< 100 nM
10,"COc1ccc(-c2ccc3c(c2)COC3=O)c(OCCC(C)C)c1OC [Compound 131, 5-[3,4-Dimethoxy-2-(3-methyl-butoxy)-phenyl]-3H-isobenzofuran-1-one]",< 100 nM
11,"COc1ccc(-c2ccc3c(c2)COC3=O)c(OCC(C)(C)C)c1OC [Compound 132, 5-[2-(2,2-Dimethyl-propoxy)-3,4-dimethoxy-phenyl]-3H-isobenzofuran-1-one]",< 100 nM
12,"COc1ccc(-c2ccc3c(c2)COC3=O)c(OCC2CCC2)c1OC [Compound 133, 5-(2-Cyclobutylmethoxy-3,4-dimethoxy-phenyl)-3H-isobenzofuran-1-one]",< 100 nM
13,"COc1ccc(-c2ccc3c(c2)COC3=O)c(OCC2(CO)COC2)c1OC [Compound 134, 5-[2-(3-Hydroxymethyl-oxetan-3-ylmethoxy)-3,4-dimethoxy-phenyl]-3H-isobenzofuran-1-one]",< 100 nM
14,"COc1ccc(-c2ccc3c(c2)COC3=O)c(OCCC(C)(C)C)c1OC [Compound 135, 5-[2-(3,3-Dimethyl-butoxy)-3,4-dimethoxy-phenyl]-3H-isobenzofuran-1-one]",< 100 nM
15,"COc1ccc(-c2ccc3c(c2)COC3=O)c(OCc2ccc(C(N)=O)cc2)c1OC [Compound 136, 4-[2,3-Dimethoxy-6-(1-oxo-1,3-dihydro-isobenzofuran-5-yl)-phenoxymethyl]-benzamide]",< 100 nM
16,"COc1ccc(-c2ccc3c(c2)COC3=O)c(OCC(C)(C)CO)c1OC [Compound 137, 5-[2(3-Hydroxy-2,2-dimethyl-propoxy)-3,4-dimethoxy-phenyl]-3H-isobenzofuran-1-one]",< 100 nM
17,"CNC(=O)c1ccc(COc2c(-c3ccc4c(c3)COC4=O)ccc(OC)c2OC)cc1 [Compound 138, 4-[2,3-Dimethoxy-6-(1-oxo-1,3-dihydro-isobenzofuran-5-yl)-phenoxymethyl]-N-methyl-benzamide]",< 100 nM
18,"COc1ccc(-c2ccc3c(c2)COC3=O)c(OCc2ccc(C(=O)N(C)C)cc2)c1OC [Compound 139, 4-[2,3-Dimethoxy-6-(1-oxo-1,3-dihydro-isobenzofuran-5-yl)-phenoxymethyl]-N,N-dimethyl-benzamide]",< 100 nM
19,"COc1ccc(-c2ccc3c(c2)COC3=O)c(OCc2cccc(C(=O)N(C)C)c2)c1OC [Compound 140, 3-[2,3-Dimethoxy-6-(1-oxo-1,3-dihydro-isobenzofuran-5-yl)-phenoxymethyl]-N,N-dimethyl-benzamide]",< 100 nM
20,"COc1ccc(-c2ccc3c(c2)COC3=O)c(OCc2ccc(S(N)(=O)=O)cc2)c1OC [Compound 141, 4-[2,3-Dimethoxy-6-(1-oxo-1,3-dihydro-isobenzofuran-5-yl)-phenoxymethyl]-benzenesulfonamide]",< 100 nM

# Reference: patent publication US9051290B2, “Biaryl phosphodiesterase inhibitors” (LEO PHARMA A/S, priority 2010, dated 2015)
